Results as given in patent US8058475B2, “Substituted cyclohexylmethyl compounds” (Gruenenthal GmbH, priority 2005, dated 2011).
Read-outs that look alike come from different tables or passages of the source.

Molecular target: human μ-opiate receptor (Homo sapiens, UniProt P35372)
Experiment: Affinity for the human μ-opiate receptor ([3H]-naloxone displacement, SPA, CHO-K1 membrane preparation)
Type: binding
Conditions: for inhibition at 1 µM: read-out: μ-Opioid receptor, % inhibition [1 μM]; for Ki: read-out: μ-Opioid receptor, Ki

Sequence of human μ-opiate receptor (P35372 whole entry): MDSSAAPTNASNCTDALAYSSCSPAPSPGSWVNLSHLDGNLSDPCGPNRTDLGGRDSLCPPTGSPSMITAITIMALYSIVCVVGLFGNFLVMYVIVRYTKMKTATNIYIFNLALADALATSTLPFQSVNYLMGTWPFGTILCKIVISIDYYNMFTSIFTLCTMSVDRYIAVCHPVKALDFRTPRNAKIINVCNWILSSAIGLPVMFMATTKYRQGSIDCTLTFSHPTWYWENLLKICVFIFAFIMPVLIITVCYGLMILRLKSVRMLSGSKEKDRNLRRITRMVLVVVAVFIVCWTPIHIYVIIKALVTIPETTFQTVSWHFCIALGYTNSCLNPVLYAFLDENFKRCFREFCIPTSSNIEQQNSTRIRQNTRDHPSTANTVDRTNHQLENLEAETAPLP

Row | SMILES | inhibition at 1 µM [%] | Ki [nM] | μ-Opioid receptor, % inhibition [1 μM] [%] | inhibition at 1 µM (1 μM test substance, inhibition of specific [3H]-naloxone binding) [%] | μ-Opioid receptor, % inhibition [1 μM] (1 µM) [%]
1 | COc1cccc(C(=O)NCCC2CCC(C(c3ccc(F)cc3)N(C)C)CC2)c1 (stereo not shown) [compound 447, N-(2-{4-[dimethylamino-(4-fluoro-phenyl)-methyl]-cyclohexyl}-ethyl)-3-methoxy-benzamide] | 83 | 130 | – | – | –
2 | CSc1ncccc1C(=O)NCC1CCC(C(c2ccc(F)cc2)N(C)C)CC1 (stereo not shown) [compound 381, N-{4-[dimethylamino-(4-fluoro-phenyl)-methyl]-cyclohexylmethyl}-2-methyl-sulfanyl-nicotinamide] | – | 99 | 83 | – | –
3 | CN(C)C(c1ccc(Cl)cc1)C1CCC(O)(Cc2ccc(F)cc2)CC1 (stereo not shown) [compound 172, 4-[(4-chloro-phenyl)-dimethylamino-methyl]-1-(4-fluoro-benzyl)-cyclohexanol] | – | – | – | 77 | –
4 | Cc1ccccc1C(=O)NCCC1CCC(C(c2ccccc2)N(C)C)CC1 (single isomer, unassigned) [compound 417, N-{2-[4-(dimethylamino-phenyl-methyl)-cyclohexyl]-ethyl}-2-methyl-benzamide] | 91 | 31 | – | – | –
5 | Cc1cc(C(=O)NC2CCC(C(c3ccccc3)N(C)C)CC2)c(C)o1 (stereo not shown) [compound 279, 2,5-dimethyl-furan-3-carboxylic acid [4-(dimethylamino-phenyl-methyl)-cyclohexyl]-amide] | 74 | 140 | – | – | –
6 | CN(C)C(c1ccc(F)cc1)C1CCC(NC(=O)c2cc(F)c(F)cc2F)CC1 (stereo not shown) [compound 271, N-{4-[dimethylamino-(4-fluoro-phenyl)-methyl]-cyclohexyl}-2,4,5-trifluoro-benzamide] | 75 | 19 | – | – | –
7 | CN(C)C(c1ccccc1)C1CCC(CCNC(=O)c2ccc(F)c(F)c2)CC1 (stereo not shown) [compound 444, N-{2-[4-(dimethylamino-phenyl-methyl)-cyclohexyl]-ethyl}-3,4-difluoro-benzamide] | 101 | 11 | – | – | –
8 | CN(C)C(c1cccs1)C1CCC(CCNC(=O)c2ccc(F)c(F)c2)CC1 (stereo not shown) [compound 446, N-{2-[4-(dimethylamino-thiophen-2-yl-methyl)-cyclohexyl]-ethyl}-3,4-difluoro-benzamide] | 99 | 6.4 | – | – | –
9 | CN(C)C(CCc1ccccc1)C1CCC(NC(=O)c2cccc(Cl)c2)CC1 (stereo not shown) [compound 241, 3-chloro-N-[4-(1-dimethylamino-3-phenyl-propyl)-cyclohexyl]-benzamide] | 82 | 68 | – | – | –
10 | Cc1cc(C(=O)NC2CCC(C(c3cccc(F)c3)N(C)C)CC2)c(C)o1 (stereo not shown) [compound 265, 2,5-dimethyl-furan-3-carboxylic acid {4-[dimethylamino-(3-fluoro-phenyl)-methyl]-cyclohexyl}-amide] | 78 | 140 | – | – | –
11 | CCCc1ccc(C(=O)NC2CCC(C(c3cccs3)N(C)C)CC2)cc1 (stereo not shown) [compound 185, N-[4-(dimethylamino-thiophen-2-yl-methyl)-cyclohexyl]-4-propyl-benzamide] | 100 | 37 | – | – | –
12 | CN(C)C(c1ccccc1)C1CCC(CCNC(=O)c2cccc(Cl)c2)CC1 (single isomer, unassigned) [compound 397, 3-chloro-N-{2-[4-(dimethylamino-phenyl-methyl)-cyclohexyl]-ethyl}-benzamide] | 97 | 7.2 | – | – | –
13 | COc1cccc(CC(=O)NCCC2CCC(C(c3cccc(F)c3)N(C)C)CC2)c1 (stereo not shown) [compound 453, N-(2-{4-[dimethylamino-(3-fluoro-phenyl)-methyl]-cyclohexyl}-ethyl)-2-(3-methoxy-phenyl)-acetamide] | 83 | 43 | – | – | –
14 | Cc1cccc(C(=O)NCCC2CCC(C(c3ccc(F)cc3)N(C)C)CC2)c1 (stereo not shown) [compound 429, N-(2-{4-[dimethylamino-(4-fluoro-phenyl)-methyl]-cyclohexyl}-ethyl)-3-methyl-benzamide] | 88 | 55 | – | – | –
15 | CN(C)C(c1ccccc1)C1CCC(CCNC(=O)c2cccs2)CC1 (stereo not shown) [compound 452, thiophene-2-carboxylic acid {2-[4-(dimethylamino-phenyl-methyl)-cyclohexyl]-ethyl}-amide] | 99 | 12 | – | – | –
16 | CN(C)C(c1ccccc1)C1CCC(CCNC(=O)COCc2ccccc2)CC1 (stereo not shown) [compound 450, 2-benzyloxy-N-{2-[4-(dimethylamino-phenyl-methyl)-cyclohexyl]-ethyl}-acetamide] | 89 | 81 | – | – | –
17 | CN(C)C(c1cccc(F)c1)C1CCC(CNC(=O)c2ccc(F)c(C(F)(F)F)c2)CC1 (stereo not shown) [compound 350, N-{4-[dimethylamino-(3-fluoro-phenyl)-methyl]-cyclohexylmethyl}-4-fluoro-3-trifluoromethyl-benzamide] | 89 | 37 | – | – | –
18 | CN(C)C(c1ccc(Cl)cc1)C1CCC(CNC(=O)C(c2ccccc2)c2ccccc2)CC1 (stereo not shown) [compound 312, N-{4-[(4-chloro-phenyl)-dimethylamino-methyl]-cyclohexylmethyl}-2,2-diphenyl-acetamide] | 97 | 53 | – | – | –

Row | SMILES | inhibition at 1 µM [%] | Ki [nM] | μ-Opioid receptor, % inhibition [1 μM] [%] | inhibition at 1 µM (1 μM test substance, inhibition of specific [3H]-naloxone binding) [%] | μ-Opioid receptor, % inhibition [1 μM] (1 µM) [%]
19 | CN(C)C(c1ccc(Cl)cc1)C1CCC(CNC(=O)c2csc3ccccc23)CC1 (single isomer, unassigned) [compound 336, benzo[b]thiophene-3-carboxylic acid {4-[(4-chloro-phenyl)-dimethylamino-methyl]-cyclohexylmethyl}-amide] | 92 | 39 | – | – | –
20 | CN(C)C(c1ccccc1)C1CCC(NC(=O)CC(C)(C)C)CC1 (single isomer, unassigned) [compound 228, N-[4-(dimethylamino-phenyl-methyl)-cyclohexyl]-3,3-dimethyl-butyramide] | 87 | 19 | – | – | –
21 | CN(C)C(c1cccc(F)c1)C1CCC(CNC(=O)c2cccs2)CC1 (single isomer, unassigned) [compound 334, thiophene-2-carboxylic acid {4-[dimethylamino-(3-fluoro-phenyl)-methyl]-cyclohexylmethyl}-amide] | 92 | 62 | – | – | –
22 | CN(C)C(c1ccccc1)C1CCC(CCNC(=O)c2csc(-c3ccccc3)n2)CC1 (stereo not shown) [compound 463, 2-phenyl-thiazole-4-carboxylic acid {2-[4-(dimethylamino-phenyl-methyl)-cyclohexyl]-ethyl}-amide] | 104 | 8.6 | – | – | –
23 | CN(C)C(c1cccc(F)c1)C1CCC(NC(=O)c2cc(Cl)cc(Cl)c2)CC1 (stereo not shown) [compound 243, 3,5-dichloro-N-{4-[dimethylamino-(3-fluoro-phenyl)-methyl]-cyclohexyl}-benzamide] | 82 | 25 | – | – | –
24 | CN(C)C(c1cccs1)C1CCC(NC(=O)c2csc(-c3ccc4c(c3)CCO4)n2)CC1 (stereo not shown) [compound 239, 2-(2,3-dihydro-benzofuran-5-yl)-thiazole-4-carboxylic acid [4-(dimethylamino-thiophen-2-yl-methyl)-cyclohexyl]-amide] | 82 | 80 | – | – | –
25 | CN(C)C(c1ccccc1)C1CCC(CNC(=O)CC(C)(C)C)CC1 (stereo not shown) [compound 298, N-[4-(dimethylamino-phenyl-methyl)-cyclohexylmethyl]-3,3-dimethyl-butyramide] | 100 | 4 | – | – | –
26 | CN(C)C(c1ccccc1)C1CCC(CNC(=O)Cc2ccc(Cl)cc2)CC1 (stereo not shown) [compound 324, 2-(4-chloro-phenyl)-N-[4-(dimethylamino-phenyl-methyl)-cyclohexylmethyl]-acetamide] | 95 | 22 | – | – | –
27 | CN(C)C(c1ccccc1)C1CCC(CNC(=O)c2cccc(C(F)(F)F)c2)CC1 (single isomer, unassigned) [compound 326, N-[4-(dimethylamino-phenyl-methyl)-cyclohexylmethyl]-3-trifluoromethyl-benzamide] | 94 | 11 | – | – | –
28 | COc1c(C(=O)NC2CCC(C(c3ccc(F)cc3)N(C)C)CC2)csc1Cl (stereo not shown) [compound 211, 5-chloro-4-methoxy-thiophene-3-carboxylic acid {4-[dimethylamino-(4-fluoro-phenyl)-methyl]-cyclohexyl}-amide] | 92 | – | – | – | –
29 | CN(C)C(c1ccccc1)C1CCC(NC(=O)C2(c3ccc(Cl)cc3)CCCC2)CC1 (stereo not shown) [compound 184, 1-(4-chloro-phenyl)-cyclopentanecarboxylic acid [4-(dimethylamino-phenyl-methyl)-cyclohexyl]-amide] | 101 | 5.2 | – | – | –
30 | CN(C)C(c1cccc(F)c1)C1CCC(CCNC(=O)c2ccccc2Br)CC1 (stereo not shown) [compound 396, 2-bromo-N-(2-{4-[dimethylamino-(3-fluoro-phenyl)-methyl]-cyclohexyl}-ethyl)-benzamide] | 97 | 12 | – | – | –
31 | CN(C)C(c1cccs1)C1CCC(CNC(=O)Cc2ccc(Cl)cc2)CC1 (stereo not shown) [compound 311, 2-(4-chloro-phenyl)-N-[4-(dimethylamino-thiophen-2-yl-methyl)-cyclohexyl-methyl]-acetamide] | 98 | 11 | – | – | –
32 | CN(C)C(c1ccc(Cl)cc1)C1CCC(CCNC(=O)c2ccc(F)cc2)CC1 (stereo not shown) [compound 408, N-(2-{4-[(4-chloro-phenyl)-dimethylamino-methyl]-cyclohexyl}-ethyl)-4-fluoro-benzamide] | 82 | 12 | – | – | –
33 | CN(C)C(c1ccccc1)C1CCC(NC(=O)c2scc(S(C)(=O)=O)c2Cl)CC1 (stereo not shown) [compound 252, 3-chloro-4-methanesulfonyl-thiophene-2-carboxylic acid [4-(dimethylamino-phenyl-methyl)-cyclohexyl]-amide] | 81 | 20 | – | – | –
34 | Cc1cc(C(=O)NCC2CCC(C(c3ccccc3)N(C)C)CC2)no1 (stereo not shown) [compound 379, 5-methyl-isoxazole-3-carboxylic acid [4-(dimethylamino-phenyl-methyl)-cyclohexylmethyl]-amide] | 83 | – | – | – | –
35 | Cc1cc(C(=O)NC2CCC(C(c3ccccc3)N(C)C)CC2)n(C(C)(C)C)n1 (stereo not shown) [compound 247, 2-tert-butyl-5-methyl-2H-pyrazole-3-carboxylic acid [4-(dimethylamino-phenyl-methyl)-cyclohexyl]-amide] | – | 36 | – | – | 82
